In publication PMC12396409, “Screening and hit evaluation of a microbial metabolite library against the pathogenic Plasmodium falciparum and Toxoplasma gondii parasites” (International Journal for Parasitology: Drugs and Drug …, 2025):
Read-outs that look alike come from different tables or passages of the source.

Assays:
[1] = tested on: T. gondii RH strain (RH-Tub-eYFP) tachyzoites; assay: microbe, parasite or virus in culture; type: cell-based, Toxoplasma gondii; details: 72 h; for percent parasite growth at 2 µg/mL: Toxoplasma gondii
[2] = tested on: P. falciparum 3D7 parasites; assay: P. falciparum growth inhibition assay, 2-cycle (120 h treatment), delayed-death screen and dose-response; type: cell-based, Plasmodium falciparum; details: for activity at 2 µg/mL: Plasmodium falciparum, 3D7, 120 h
[3] = tested on: P. falciparum 3D7 parasites; assay: P. falciparum growth inhibition assay, 1-cycle (72 h treatment), SYBR DNA staining (library screen at 2 μg/mL and dose-response); type: cell-based, Plasmodium falciparum; details: for activity at 2 µg/mL: Plasmodium falciparum, 3D7, 72 h
[4] = T. gondii, screen at 2 μg/mL, replicate 1
[5] = T. gondii, screen at 2 μg/mL, replicate 2
[6] = P. falciparum, 120 h, screen at 2 μg/mL, replicate 1
[7] = P. falciparum, 120 h, screen at 2 μg/mL, replicate 2
[8] = P. falciparum, 72 h, screen at 2 μg/mL, replicate 1
[9] = P. falciparum, 72 h, screen at 2 μg/mL, replicate 2
[10] = T. gondii, parasite screen at 2 μg/mL, % growth, replicate 1
[11] = T. gondii, parasite screen at 2 μg/mL, % growth, replicate 2
[12] = P. falciparum 3D7, 120 h, parasite screen at 2 μg/mL, % growth, replicate 1
[13] = P. falciparum 3D7, 120 h, parasite screen at 2 μg/mL, % growth, replicate 2
[14] = P. falciparum 3D7, 72 h, parasite screen at 2 μg/mL, % growth, replicate 1
[15] = P. falciparum 3D7, 72 h, parasite screen at 2 μg/mL, % growth, replicate 2
[16] = library screen at 2 μg/mL, % growth, replicate 1
[17] = library screen at 2 μg/mL, % growth, replicate 2
[18] = library screen at 2 μg/mL, 120 h, % growth, replicate 1
[19] = library screen at 2 μg/mL, 120 h, % growth, replicate 2
[20] = library screen at 2 μg/mL, 72 h, % growth, replicate 1
[21] = library screen at 2 μg/mL, 72 h, % growth, replicate 2
[22] = T. gondii, screen at 2 μg/mL, replicate 1, read-out: Tg_72h_%Growth_Rep1
[23] = T. gondii, screen at 2 μg/mL, replicate 2, read-out: Tg_72h_%Growth_Rep2
[24] = P. falciparum, 120 h, screen at 2 μg/mL, replicate 1, read-out: Pf_120h_%Growth_Rep1
[25] = P. falciparum, 120 h, screen at 2 μg/mL, replicate 2, read-out: Pf_120h_%Growth_Rep2
[26] = P. falciparum, 72 h, screen at 2 μg/mL, replicate 1, read-out: Pf_72h_%Growth_Rep1
[27] = P. falciparum, 72 h, screen at 2 μg/mL, replicate 2, read-out: Pf_72h_%Growth_Rep2

## CCC(=O)[C@@H](C)[C@@H](O)[C@H](C)C[C@@H](C)[C@H]1OC(=O)C[C@@]2(O)CC=C(C)[C@H](O2)/C(C)=C/CCC[C@@H](O[C@H]2C[C@@H](OC(N)=O)[C@H](O)[C@@H](C)O2)/C=C/[C@H](C)C[C@H]1C [Venturicidin A]
[1]; [4]
  Tg_72h_%Growth_Rep1: -1.24%
[1]; [5]
  Tg_72h_%Growth_Rep2: 0.71%
[2]; [6]
  Pf_120h_%Growth_Rep1: 19.97%
[2]; [7]
  Pf_120h_%Growth_Rep2: -12.87%
[3]; [8]
  Pf_72h_%Growth_Rep1: 8.64%
[3]; [9]
  Pf_72h_%Growth_Rep2: 1.38%

## COC1=CC(=O)c2c(n(C)c3occc3c2=O)C1=O [BIA-M1955]
[1]; [10]
  Tg_72h_%Growth_Rep1: 248.99%
[1]; [11]
  Tg_72h_%Growth_Rep2: 112.97%
[2]; [12]
  Pf_120h_%Growth_Rep1: 53.96%
[2]; [13]
  Pf_120h_%Growth_Rep2: 26.88%
[3]; [14]
  Pf_72h_%Growth_Rep1: 39.08%
[3]; [15]
  Pf_72h_%Growth_Rep2: 29.78%

## CC(C)=C[C@H]1C[C@H](C)[C@]2(CC[C@]3(C)C[C@@H]4C(C)=CC(=O)[C@H]4/C(C=O)=C\C[C@H]32)O1 [Anhydroepiophiobolin A]
[1]; [16]
  Tg_72h_%Growth_Rep1: 120.33%
[1]; [17]
  Tg_72h_%Growth_Rep2: 104.77%
[2]; [18]
  Pf_120h_%Growth_Rep1: -5.12%
[2]; [19]
  Pf_120h_%Growth_Rep2: 6.51%
[3]; [20]
  Pf_72h_%Growth_Rep1: 2.50%
[3]; [21]
  Pf_72h_%Growth_Rep2: 3.83%

## C=C1CC[C@H](O)C(C)(C)[C@@H]1CC/C(C)=C/CC/C(C)=C/Cc1c(O)cc(C)oc1=O [Sartorypyrone D]
[1]; T. gondii, parasite screen 2 μg/mL, % growth, replicate 1
  Tg_72h_%Growth_Rep1: 121.13%
[1]; T. gondii, parasite screen 2 μg/mL, % growth, replicate 2
  Tg_72h_%Growth_Rep2: 88.47%
[2]; P. falciparum, 120 h, parasite screen 2 μg/mL, % growth, replicate 1
  Pf_120h_%Growth_Rep1: 72.77%
[2]; P. falciparum, 120 h, parasite screen 2 μg/mL, % growth, replicate 2
  Pf_120h_%Growth_Rep2: 7.76%
[3]; P. falciparum, 72 h, parasite screen 2 μg/mL, % growth, replicate 1
  Pf_72h_%Growth_Rep1: 81.94%
[3]; P. falciparum, 72 h, parasite screen 2 μg/mL, % growth, replicate 2
  Pf_72h_%Growth_Rep2: 66.06%

## COc1ccc2c3c([nH]c2c1)C(C)(C)C=CN1C(=O)[C@H](C)NC(=O)/C1=C/3 [Cycloechinulin]
[1]; [4]
  Tg_72h_%Growth_Rep1: 136.66%
[1]; [5]
  Tg_72h_%Growth_Rep2: 103.07%
[2]; [6]
  Pf_120h_%Growth_Rep1: 51.02%
[2]; [7]
  Pf_120h_%Growth_Rep2: 53.71%
[3]; [8]
  Pf_72h_%Growth_Rep1: 63.19%
[3]; [9]
  Pf_72h_%Growth_Rep2: 64.05%

## CC(=O)OCC12CC(O)C(C)=CC1OC1C(O)C(OC(C)=O)C2(C)C12CO2 (stereo not drawn) [BIA-N1931]
[1]; [10]
  Tg_72h_%Growth_Rep1: 0.58%
[1]; [11]
  Tg_72h_%Growth_Rep2: -0.09%
[2]; [12]
  Pf_120h_%Growth_Rep1: 9.98%
[2]; [13]
  Pf_120h_%Growth_Rep2: 3.84%
[3]; [14]
  Pf_72h_%Growth_Rep1: 6.76%
[3]; [15]
  Pf_72h_%Growth_Rep2: -0.85%

## CC1(O)Cc2oc3cc(O)c(O)c(C(=O)O)c3c(=O)c2CO1 (stereo not drawn) [Fulvic acid]
[1]; [16]
  Tg_72h_%Growth_Rep1: 149.83%
[1]; [17]
  Tg_72h_%Growth_Rep2: 113.67%
[2]; [18]
  Pf_120h_%Growth_Rep1: 105.15%
[2]; [19]
  Pf_120h_%Growth_Rep2: 98.61%
[3]; [20]
  Pf_72h_%Growth_Rep1: 84.86%
[3]; [21]
  Pf_72h_%Growth_Rep2: 84.76%

## C=C1[C@@H](C)[C@H]2[C@H](Cc3ccccc3)NC(=O)[C@]23[C@H](OC(C)=O)/C=C/[C@](C)(O)C[C@@H](C)C/C=C/[C@H]3[C@@H]1O [Cytochalasin H]
[1]; [4]
  Tg_72h_%Growth_Rep1: 1.51%
[1]; [5]
  Tg_72h_%Growth_Rep2: 2.70%
[2]; [6]
  Pf_120h_%Growth_Rep1: 1.94%
[2]; [7]
  Pf_120h_%Growth_Rep2: -0.33%
[3]; [8]
  Pf_72h_%Growth_Rep1: 6.96%
[3]; [9]
  Pf_72h_%Growth_Rep2: 6.37%

## CC[C@H]1C[C@@H]2CC[C@@H](O2)[C@@H](C)C(=O)O[C@H](CC)C[C@H]2CC[C@H](O2)[C@H](C)C(=O)O[C@@H](CC)C[C@@H]2CC[C@@H](O2)[C@@H](C)C(=O)O[C@H](CC)C[C@H]2CC[C@H](O2)[C@H](C)C(=O)O1 [Tetranactin]
[1]; [4]
  Tg_72h_%Growth_Rep1: 5.41%
[1]; [5]
  Tg_72h_%Growth_Rep2: 2.84%
[2]; [6]
  Pf_120h_%Growth_Rep1: 29.81%
[2]; [7]
  Pf_120h_%Growth_Rep2: 14.39%
[3]; [8]
  Pf_72h_%Growth_Rep1: 6.09%
[3]; [9]
  Pf_72h_%Growth_Rep2: -9.23%

## Nc1ncnc2c1ccn2[C@@H]1O[C@H](CO)[C@@H](O)[C@H]1O [Tubercidin]
[1]; [22]
  percent parasite growth at 2 µg/mL: 3.92%
[1]; [23]
  percent parasite growth at 2 µg/mL: 3.05%
[2]; [24]
  activity at 2 µg/mL: 40.9%
[2]; [25]
  activity at 2 µg/mL: 12.8%
[3]; [26]
  activity at 2 µg/mL: 7.17%
[3]; [27]
  activity at 2 µg/mL: 7.42%

## C[C@H]1C/C=C/[C@H]2[C@@H]3O[C@]3(C)[C@@H](C)[C@H]3[C@H](Cc4ccccc4)NC(=O)[C@]32OC(=O)O/C=C/[C@@](C)(O)C1=O [Cytochalasin E]
[1]; [22]
  percent parasite growth at 2 µg/mL: 89.3%
[1]; [23]
  percent parasite growth at 2 µg/mL: 102%
[2]; [24]
  activity at 2 µg/mL: 53.6%
[2]; [25]
  activity at 2 µg/mL: 53.8%
[3]; [26]
  activity at 2 µg/mL: 64%
[3]; [27]
  activity at 2 µg/mL: 54.5%
